{"source": "paper PMC10657792", "about": "“Downstream Allosteric Modulation of NMDA Receptors by 3-Benzazepine Derivatives” (Molecular Neurobiology, 2023)", "key": {"[1]": {"assay": "Solubility limit in TEVC compound solution", "type": "physicochemical", "conditions": "higher concentrations could not be tested in TEVC"}, "GluN1a wt/ GluN2B Q110A": {"target": "GluN1a wt/ GluN2B Q110A (Rattus norvegicus, UniProt P35439+Q00960, Q110A)", "assay": "TEVC recording in X. laevis oocytes, GluN2B mutant screening", "type": "cell-based", "conditions": "fitted curve"}, "GluN1a wt/ GluN2B F114A": {"target": "GluN1a wt/ GluN2B F114A (Rattus norvegicus, UniProt P35439+Q00960, F114A)", "assay": "TEVC recording in X. laevis oocytes, GluN2B mutant screening", "type": "cell-based", "conditions": "fitted curve"}, "GluN1a wt/ GluN2B E236A": {"target": "GluN1a wt/ GluN2B E236A (Rattus norvegicus, UniProt P35439+Q00960, E236A)", "assay": "TEVC recording in X. laevis oocytes, GluN2B mutant screening", "type": "cell-based", "conditions": "fitted curve"}, "[2]": {"target": "GluN1a wt/ GluN2B N192A/F194A (Rattus norvegicus, UniProt P35439+Q00960, F194A/N192A)", "sequence (Q00960 27-1482 N192A/F194A, other chains not shown)": "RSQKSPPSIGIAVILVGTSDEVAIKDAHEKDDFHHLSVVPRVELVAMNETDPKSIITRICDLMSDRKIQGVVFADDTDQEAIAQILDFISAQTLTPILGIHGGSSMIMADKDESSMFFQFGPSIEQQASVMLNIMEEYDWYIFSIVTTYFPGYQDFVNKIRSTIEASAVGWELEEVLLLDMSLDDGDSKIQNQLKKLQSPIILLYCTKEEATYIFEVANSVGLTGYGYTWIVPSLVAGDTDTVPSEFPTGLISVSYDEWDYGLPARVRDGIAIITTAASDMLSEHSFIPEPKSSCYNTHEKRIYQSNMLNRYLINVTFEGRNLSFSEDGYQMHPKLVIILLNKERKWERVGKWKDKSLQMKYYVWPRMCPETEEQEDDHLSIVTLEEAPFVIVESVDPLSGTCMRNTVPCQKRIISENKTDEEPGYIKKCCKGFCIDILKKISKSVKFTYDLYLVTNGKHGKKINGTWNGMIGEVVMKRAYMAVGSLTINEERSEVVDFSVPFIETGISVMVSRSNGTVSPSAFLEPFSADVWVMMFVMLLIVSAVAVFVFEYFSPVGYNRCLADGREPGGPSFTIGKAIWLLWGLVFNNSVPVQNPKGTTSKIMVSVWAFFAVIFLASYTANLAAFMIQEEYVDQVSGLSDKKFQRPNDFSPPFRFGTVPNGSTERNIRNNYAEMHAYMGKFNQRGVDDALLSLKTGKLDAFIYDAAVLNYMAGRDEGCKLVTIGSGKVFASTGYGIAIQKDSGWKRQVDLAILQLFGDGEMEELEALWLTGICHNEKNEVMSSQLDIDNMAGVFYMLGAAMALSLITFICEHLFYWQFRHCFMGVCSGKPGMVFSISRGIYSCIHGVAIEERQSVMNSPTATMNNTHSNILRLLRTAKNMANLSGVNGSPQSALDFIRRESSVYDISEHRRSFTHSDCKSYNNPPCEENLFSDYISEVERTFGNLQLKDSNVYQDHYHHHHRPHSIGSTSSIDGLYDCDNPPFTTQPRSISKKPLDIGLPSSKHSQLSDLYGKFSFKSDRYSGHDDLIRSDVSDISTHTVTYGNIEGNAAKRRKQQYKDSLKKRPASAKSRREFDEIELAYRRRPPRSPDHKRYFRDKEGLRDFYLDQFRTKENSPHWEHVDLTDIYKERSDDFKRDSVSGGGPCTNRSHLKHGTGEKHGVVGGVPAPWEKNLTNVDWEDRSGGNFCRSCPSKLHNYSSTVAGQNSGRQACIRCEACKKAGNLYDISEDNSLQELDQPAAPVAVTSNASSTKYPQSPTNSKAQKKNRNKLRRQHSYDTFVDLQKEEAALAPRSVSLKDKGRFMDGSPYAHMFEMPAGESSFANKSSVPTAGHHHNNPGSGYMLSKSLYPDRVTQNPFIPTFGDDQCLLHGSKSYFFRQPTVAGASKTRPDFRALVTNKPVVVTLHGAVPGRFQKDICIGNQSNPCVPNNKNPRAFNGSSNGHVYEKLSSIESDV", "assay": "TEVC recording in X. laevis oocytes, GluN2B mutant screening", "type": "cell-based"}, "GluN1b wt/ GluN2B wt [3]": {"target": "T1, GluN1b wt/ GluN2B wt (Rattus norvegicus, UniProt P35439+Q00960)", "T1 sequence (Q00960 27-1482, other chains not shown)": "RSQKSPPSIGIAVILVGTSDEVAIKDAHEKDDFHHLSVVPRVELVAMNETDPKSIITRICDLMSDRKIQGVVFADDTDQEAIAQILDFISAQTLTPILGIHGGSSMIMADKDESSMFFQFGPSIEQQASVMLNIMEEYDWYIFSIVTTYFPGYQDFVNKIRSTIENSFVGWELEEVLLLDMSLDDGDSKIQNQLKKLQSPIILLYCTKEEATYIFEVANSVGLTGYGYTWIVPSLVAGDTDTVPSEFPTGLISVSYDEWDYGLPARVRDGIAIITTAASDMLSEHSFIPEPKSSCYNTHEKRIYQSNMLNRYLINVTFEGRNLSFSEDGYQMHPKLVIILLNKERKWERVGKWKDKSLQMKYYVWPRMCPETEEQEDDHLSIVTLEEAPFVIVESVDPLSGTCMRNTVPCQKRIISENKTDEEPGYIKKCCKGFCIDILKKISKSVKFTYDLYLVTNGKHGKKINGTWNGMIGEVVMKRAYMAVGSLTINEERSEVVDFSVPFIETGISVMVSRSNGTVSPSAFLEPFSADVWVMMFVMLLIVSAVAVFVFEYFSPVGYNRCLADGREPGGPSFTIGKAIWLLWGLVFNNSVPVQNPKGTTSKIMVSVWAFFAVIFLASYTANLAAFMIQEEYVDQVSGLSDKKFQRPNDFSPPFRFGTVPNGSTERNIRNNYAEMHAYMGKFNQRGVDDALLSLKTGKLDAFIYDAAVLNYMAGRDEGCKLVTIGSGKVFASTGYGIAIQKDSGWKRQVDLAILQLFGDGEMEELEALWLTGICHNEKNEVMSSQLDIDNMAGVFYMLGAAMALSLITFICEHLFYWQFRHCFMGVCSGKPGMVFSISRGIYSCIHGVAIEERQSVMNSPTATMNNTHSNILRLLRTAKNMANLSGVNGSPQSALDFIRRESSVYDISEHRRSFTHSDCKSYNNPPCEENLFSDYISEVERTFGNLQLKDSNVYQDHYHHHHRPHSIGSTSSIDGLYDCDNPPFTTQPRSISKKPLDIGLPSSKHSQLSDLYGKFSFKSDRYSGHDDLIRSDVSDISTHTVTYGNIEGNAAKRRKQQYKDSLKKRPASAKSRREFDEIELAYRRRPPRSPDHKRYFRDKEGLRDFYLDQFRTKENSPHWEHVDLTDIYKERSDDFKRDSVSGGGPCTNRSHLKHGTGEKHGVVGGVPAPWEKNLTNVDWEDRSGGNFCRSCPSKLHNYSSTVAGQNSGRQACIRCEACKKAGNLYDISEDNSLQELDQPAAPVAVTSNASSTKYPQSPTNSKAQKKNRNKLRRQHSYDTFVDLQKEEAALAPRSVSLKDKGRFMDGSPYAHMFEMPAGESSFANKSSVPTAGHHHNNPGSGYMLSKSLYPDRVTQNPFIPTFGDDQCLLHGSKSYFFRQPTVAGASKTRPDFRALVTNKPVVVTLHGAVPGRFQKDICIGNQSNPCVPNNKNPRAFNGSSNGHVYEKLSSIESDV", "assay": "TEVC recording in X. laevis oocytes in the presence of agonists and 200 µM spermine", "type": "cell-based", "conditions": "agonists + 200 µM spermine; fitted curve", "experimental": "(§1) The NMDAR was expressed in stage V and VI oocytes originated from X. laevis. Oocytes were provided by Ecocyte Bioscience (Dortmund, Germany), and equimolar amounts of wild-type and mutated GluN1 and GluN2B cRNA were injected (0.8 ng each). The oocytes were incubated in Barth’s solution, containing (mmol l^−1): 88 NaCl, 1 KCl, 0.4 CaCl2, 0.33 Ca(NO3)2, 0.6 MgSO4, 5 TRIS–HCl, 2.4 NaHCO3, supplemented with 80 mg l^−1 theophylline, 63 mg l^−1 benzylpenicillin, 40 mg l^−1 streptomycin, and 100 mg l^−1 gentamycin and maintained at 18 °C until usage. After injection, the oocytes were incubated for 5 days at 18 °C. Subsequently, the activity of the expressed NMDARs in the oocytes was recorded by two-electrode voltage clamp (TEVC).\n(§2) The compounds were retrieved as 10 mM stock solutions in DMSO and were subsequently diluted with agonist solution and adjusted to 0.1% DMSO concentration. Inhibition of each compound was measured via TEVC in X. laevis oocytes at room temperature using a Turbo Tec 10CX amplifier (NPI electronic, Tamm, Germany), NI USB 6221 DA/AD Interface (National Instruments, Austin, USA), and GePulse Software (Dr. Michael Pusch, Genova, Italy). Ba^2+-Ringer, consisting of 10 mM HEPES, 90 mM NaCl, 1 mM KCl, and 1.5 mM BaCl2, adjusted to pH 7.4, was used for TEVC measurements. Agonist solution containing 10 µM glycine and 10 µM (S)-glutamate was prepared in Ba^2+-Ringer, and the measurements were performed at a holding potential of − 70 mV, using electrodes with a glass capillary filled with 3 M KCl and a resistance between 0.5 and 1.5 MΩ. […] Example traces for all recorded conditions can be found in Supplementary Figs. S2–S9.\n(§3) TEVC data were analyzed using Ana (Dr. Michael Pusch, Genova, Italy), and statistics were performed using OriginPro 2020 (OriginLab Corporation, Northampton, USA). The inhibitory effect of each compound is calculated using the following equation: inhibition=1-Ic-Ih/Ia-Ih where Ih describes the current in the absence of agonists; Ia represents the steady-state current in the presence of the agonists; and Ic is defined as the steady-state after binding of agonist and compound. […] Data were statistically analyzed by one-way ANOVA and Tukey post-hoc mean comparison test in OriginPro 2020 (OriginLab Corporation, Northampton, USA). p values are indicated by * for p < 0.05, ** for p < 0.01, and *** for p < 0.001.\n(§4) The NMDAR is probably modulated by polyamines such as spermine and spermidine in a similar way to exon 5 [22]. As described above, we recorded GluN1-1a/GluN2B and GluN1-1b/GluN2B expressing oocytes with 200 µM spermine and ascending concentrations of (R)-OF-NB1, to examine if the allosteric effects are mechanically in conjunction or can be potentiated. […]"}, "GluN1a wt/ GluN2B wt [4]": {"target": "T2, GluN1a wt/ GluN2B wt (Rattus norvegicus, UniProt P35439+Q00960)", "T2 sequence (Q00960 27-1482, other chains not shown)": "as above", "assay": "TEVC recording in X. laevis oocytes in the presence of agonists and 200 µM spermine", "type": "cell-based", "conditions": "agonists + 200 µM spermine; fitted curve", "experimental": "as §1, §2, §3, §4"}, "GluN1b wt/ GluN2B wt [5]": {"system": "GluN1b wt/ GluN2B wt", "assay": "TEVC recording of NMDAR currents in X. laevis oocytes, inhibition by compound", "type": "cell-based", "conditions": "X. laevis oocytes; higher for GluN1-1b", "experimental": "as §1\n(§5) The compounds were retrieved as 10 mM stock solutions in DMSO and were subsequently diluted with agonist solution and adjusted to 0.1% DMSO concentration. Inhibition of each compound was measured via TEVC in X. laevis oocytes at room temperature using a Turbo Tec 10CX amplifier (NPI electronic, Tamm, Germany), NI USB 6221 DA/AD Interface (National Instruments, Austin, USA), and GePulse Software (Dr. Michael Pusch, Genova, Italy). Ba^2+-Ringer, consisting of 10 mM HEPES, 90 mM NaCl, 1 mM KCl, and 1.5 mM BaCl2, adjusted to pH 7.4, was used for TEVC measurements. Agonist solution containing 10 µM glycine and 10 µM (S)-glutamate was prepared in Ba^2+-Ringer, and the measurements were performed at a holding potential of − 70 mV, using electrodes with a glass capillary filled with 3 M KCl and a resistance between 0.5 and 1.5 MΩ. The compounds were tested by applying ascending concentrations, ranging from 1 to 30,000 nM, in at least six oocytes. Example traces for all recorded conditions can be found in Supplementary Figs. S2–S9.\n(§6) TEVC data were analyzed using Ana (Dr. Michael Pusch, Genova, Italy), and statistics were performed using OriginPro 2020 (OriginLab Corporation, Northampton, USA). The inhibitory effect of each compound is calculated using the following equation: inhibition=1-Ic-Ih/Ia-Ih where Ih describes the current in the absence of agonists; Ia represents the steady-state current in the presence of the agonists; and Ic is defined as the steady-state after binding of agonist and compound. All dose response curves are fitted to the following logistic equation: y=A1-A2/1+x/x0^p+A2 where A1 describes the minimal inhibition of a compound and was set to 0; A2 represents the maximal inhibition of a compound; p is the slope of the curve; x0 is defined as the concentration at half-maximal inhibition; and x is the tested concentration. Data were statistically analyzed by one-way ANOVA and Tukey post-hoc mean comparison test in OriginPro 2020 (OriginLab Corporation, Northampton, USA). p values are indicated by * for p < 0.05, ** for p < 0.01, and *** for p < 0.001."}, "GluN1b wt/ GluN2B wt [6]": {"target": "T1, GluN1b wt/ GluN2B wt", "assay": "TEVC recording of NMDAR currents in X. laevis oocytes, inhibition by compound", "type": "cell-based", "experimental": "as §1, §5, §6"}, "GluN1a wt/ GluN2B wt [7]": {"target": "T2, GluN1a wt/ GluN2B wt", "assay": "TEVC recording of NMDAR currents in X. laevis oocytes, inhibition by compound", "type": "cell-based", "experimental": "as §1, §5, §6"}, "[8]": {"conditions": "agonists 10 µM glycine + 10 µM (S)-glutamate"}, "[9]": {"conditions": "oocytes, 10 µM glycine + 10 µM (S)-glutamate, -70 mV, fitted curve"}}, "note": "Several values for one entry are separate records, joined by “and”; a condition that tells them apart may be missing. Identical values can stand only once.", "data": [{"smiles": "Oc1ccc2c(c1)CCN(CCCCc1ccccc1F)C[C@@H]2O", "note": "[(R)-OF-NB1]", "values": [{"measurement": "solubility", "setting": "[1]", "result": 30, "unit": "µM"}, {"measurement": "IC50", "setting": "GluN1a wt/ GluN2B Q110A; [8]", "result": 210, "unit": "nM"}, {"measurement": "Hill coefficient", "setting": "GluN1a wt/ GluN2B Q110A", "result": 5.4}, {"measurement": "IC50", "setting": "GluN1a wt/ GluN2B F114A; [8]", "result": 6580, "unit": "nM"}, {"measurement": "Hill coefficient", "setting": "GluN1a wt/ GluN2B F114A", "result": 0.8}, {"measurement": "IC50", "setting": "GluN1a wt/ GluN2B E236A; [8]", "result": 232, "unit": "nM"}, {"measurement": "Hill coefficient", "setting": "GluN1a wt/ GluN2B E236A", "result": 1.1}, {"measurement": "inhibition at 1 µM", "setting": "[2]; GluN1-1a GluN2B N192A/F194A, compound concentration 1 μM, single oocytes", "result": 30.7, "unit": "%"}, {"measurement": "inhibition (%)", "setting": "[2]; GluN1-1a GluN2B N192A/F194A, compound concentration 1 μM, single oocytes, 1 µM", "result": "27.3896% and 29.45% and 20.653%"}, {"measurement": "inhibition (%)", "setting": "[2]; GluN1-1a GluN2B N192A/F194A, compound concentration 10 μM, single oocytes, 10 µM", "result": "48.3548% and 37.2275% and 43.7739% and 28.318%"}, {"measurement": "inhibition at 30 µM", "setting": "[2]; GluN1-1a GluN2B N192A/F194A, compound concentration 30 μM, single oocytes", "result": 50.8, "unit": "%"}, {"measurement": "inhibition (%)", "setting": "[2]; GluN1-1a GluN2B N192A/F194A, compound concentration 30 μM, single oocytes, 30 µM", "result": "42.6495% and 45.6455% and 35.2023%"}, {"measurement": "Hill coefficient", "setting": "[2]; fitted curve", "result": 0.3}, {"measurement": "Hill coefficient", "setting": "GluN1b wt/ GluN2B wt [3]", "result": 1.8}, {"measurement": "IC50", "setting": "GluN1b wt/ GluN2B wt [3]", "result": 522, "unit": "nM"}, {"measurement": "Hill coefficient", "setting": "GluN1a wt/ GluN2B wt [4]", "result": 1.4}, {"measurement": "IC50", "setting": "GluN1a wt/ GluN2B wt [4]", "result": 359, "unit": "nM"}, {"measurement": "IC50 of splice variant containing exon 5 (GluN1-1b) relative to IC50 of GluN1-1a", "setting": "GluN1b wt/ GluN2B wt [5]", "result": "sevenfold"}, {"measurement": "inhibition (%)", "setting": "GluN1b wt/ GluN2B wt [6]; GluN1-1b, compound 10 nM, single oocyte, 0.01 µM", "result": "-3.681% and 0.325% and 2.192% and 0.884% and -0.428% and 3.985% and 0.078% and 0.089%"}, {"measurement": "inhibition at 1 µM", "setting": "GluN1b wt/ GluN2B wt [6]; GluN1-1b, compound 1000 nM, single oocyte", "result": 72.1, "unit": "%"}, {"measurement": "inhibition at 10 µM", "setting": "GluN1b wt/ GluN2B wt [6]; GluN1-1b, compound 10000 nM, single oocyte", "result": 82.7, "unit": "%"}, {"measurement": "inhibition at 30 µM", "setting": "GluN1b wt/ GluN2B wt [6]; GluN1-1b, compound 30000 nM, single oocyte", "result": 84.9, "unit": "%"}, {"measurement": "inhibition (%)", "setting": "GluN1b wt/ GluN2B wt [6]; GluN1-1b/ GluN2B, compound concentration 0.001 μM, single oocytes, 0.001 µM", "result": "0.0934% and -0.03337% and 1.1426% and -0.02965% and -0.02382% and 0.3791% and 0.2758%"}, {"measurement": "inhibition (%)", "setting": "GluN1b wt/ GluN2B wt [6]; GluN1-1b/ GluN2B, compound concentration 0.01 μM, single oocytes, 0.01 µM", "result": "-0.2599% and -0.1168% and -0.1502% and 0.03902% and 1.645% and -0.1483% and 0.439% and 0.2911%"}, {"measurement": "inhibition at 30 µM", "setting": "GluN1b wt/ GluN2B wt [6]; GluN1-1b/ GluN2B, compound concentration 30 μM, single oocytes", "result": 86.1, "unit": "%"}, {"measurement": "antagonist concentration at which oocytes were inhibited", "setting": "GluN1b wt/ GluN2B wt [6]; TEVC example traces", "result": "~ 1 µM"}, {"measurement": "A2 (level of maximal inhibition)", "setting": "GluN1b wt/ GluN2B wt [6]; fitted curve", "result": 84.8, "unit": "%"}, {"measurement": "Hill coefficient", "setting": "GluN1b wt/ GluN2B wt [6]; fitted curve", "result": 6.2}, {"measurement": "IC50", "setting": "GluN1b wt/ GluN2B wt [6]; [9]", "result": 675, "unit": "nM"}, {"measurement": "inhibition at 10 µM", "setting": "GluN1a wt/ GluN2B wt [7]; GluN1-1a/ GluN2B, compound concentration 10 μM, single oocytes", "result": 88.1, "unit": "%"}, {"measurement": "inhibition at 30 µM", "setting": "GluN1a wt/ GluN2B wt [7]; GluN1-1a/ GluN2B, compound concentration 30 μM, single oocytes", "result": 91.8, "unit": "%"}, {"measurement": "antagonist concentration at which oocytes were already inhibited", "setting": "GluN1a wt/ GluN2B wt [7]; TEVC example traces", "result": 0.001, "unit": "µM"}, {"measurement": "Hill coefficient", "setting": "GluN1a wt/ GluN2B wt [7]; fitted curve", "result": 0.9}, {"measurement": "IC50", "setting": "GluN1a wt/ GluN2B wt [7]; [9]", "result": 97, "unit": "nM"}]}]}
